Results: US20190322632A1, “HRI ACTIVATORS USEFUL FOR THE TREATMENT OF CARDIOMETABOLIC DISEASES” (UNIVERSITAT DE BARCELONA, priority 2016, published 2019)

Key:
[1] = target: T1, HRI (Homo sapiens, UniProt Q9BQI3); assay: HRI phosphorylation in human Huh-7 hepatic cells (Western-blot, ratio phosphorylated/total HRI); format: cell-based; settings: Huh-7 cells, 24 h, 10 μM; for ratio phosphorylated/total HRI: vs vehicle (DMSO) control, FIG. 1, FIG. 2
T1 construct: endogenous in cells; host or cells: Huh-7 human hepatic cells
From the text: Data are presented as the mean±SD (n=4). *p<0.05 vs. control (CT) cells. ^#p<0.05 vs. BTdCPU-treated cells. BTdCPU=1-(benzo[d][1,2,3]thiadiazol-6-yl)-3-(3,4-dichlorophenyl)urea (compound (2) in Chen T. et al., ibid.).
Data are presented as the mean±SD (n=4). ***p<0.001 and *p<0.05 vs. control (CT) cells. ^#p<0.05 vs. BTdCPU-treated cells. Compound I-2 (1-(4-chloro-3-(trifluoromethyl)phenyl)-3-(4-chloro-3-(trifluoromethyl)phenyl)urea is not part of the present invention, but it has been introduced in some figures for comparative purposes.
HRI is activated by autophosphorylation and this has been used for evaluating its activation. In fact, the hyperphosphorylation of HRI is accompanied by an increase of its eIF2α kinase activity (cf. Lu L. et al., “Translation initiation control by heme-regulated eukaryotic initiation factor 2a kinase in erythroid cells under cytoplasmic stresses”, Mol. Cell. Biol., 2001, vol. 21, pp. 7971-7980). Therefore, HRI protein constitutively exists as the native nonphosphorylated 76-kDa species and/or the autoactivated/autophosphorylated 92-kDa, although the relative abundance of each HRI species tends to vary depending on the cells examined (cf. Acharya P. et al., “Hepatic heme-regulated inhibitor (HRI) eukaryotic initiation factor 2a kinase: A protagonist of heme-mediated translational control of CYP2B enzymes and a modulator of basal endoplasmic reticulum stress tone”, Mol. Pharmacol, 2010, vol. 77, pp. 575-592). […] Thus Huh-7 cells were incubated for 24 h with vehicle (DMSO, CT cells) or 10 μM of each of the assayed compound. The effects of these compounds were compared to the well-known HRI activator BTdCPU.

[2] = test system: eIF2α; assay: eIF2α phosphorylation in human Huh-7 hepatic cells (Western-blot); format: cell-based; settings: Huh-7 cells, 24 h, 10 μM, compared to BTdCPU; FIG. 3, FIG. 4
From the text: Data are presented as the mean±SD (n=4). **p<0.01 and *p<0.05 vs. control (CT) cells. ^##p<0.01 and ^#p<0.05 vs. BTdCPU-treated cells.
Data are presented as the mean±SD (n=4). *p<0.05 vs. control (CT) cells.
HRI is a kinase that phosphorylates eukaryotic Initiation Factor 2α (eIF-2a) at its Ser 51 residue to execute protein synthesis regulation and thereby HRI activators cause the phosphorylation of eIF2α as previously described (Chen T, et al., ibid). To confirm whether the new synthesized compounds were able to activate the HRI eIF2α kinase inventors examined the eIF2α phosphorylation caused by these compounds compared to the well-known HRI eIF2α kinase activator BTdCPU. Human Huh-7 hepatocytes were incubated for 24 h with vehicle (DMSO, CT cells) or 10 μM of each of the assayed compounds. eIF2α phosphorylation was determined by Western-blot.

[3] = test system: FGF21; assay: FGF21 expression in hepatocytes (quantitative real-time RT-PCR); format: cell-based, human; settings: Huh-7 hepatocytes, 24 h, 10 μM; FIG. 9
Procedure: Human Huh-7 hepatocytes were incubated for 24 h in the absence (Control, CT) or in the presence of compounds (10 μM). Assessment by quantitative real-time RT-PCR of FGF21. Data are presented as the mean±SD (n=4 per group). ***p<0.001 and **p<0.01 vs CT. ^###p<0.001, ^##p<0.01 and ^#p<0.05 vs BTCtFPU. ^††p<0.01 and ^†p<0.05 vs BTdCPU. BTCtFPU=1-(benzo[d][1,2,3]thiadiazol-6-yl)-3-(4-chloro-3-(trifluoromethyl)phenyl)urea (compound (3) in Chen T. et al., ibid.).

T1 sequence (Q9BQI3 whole entry): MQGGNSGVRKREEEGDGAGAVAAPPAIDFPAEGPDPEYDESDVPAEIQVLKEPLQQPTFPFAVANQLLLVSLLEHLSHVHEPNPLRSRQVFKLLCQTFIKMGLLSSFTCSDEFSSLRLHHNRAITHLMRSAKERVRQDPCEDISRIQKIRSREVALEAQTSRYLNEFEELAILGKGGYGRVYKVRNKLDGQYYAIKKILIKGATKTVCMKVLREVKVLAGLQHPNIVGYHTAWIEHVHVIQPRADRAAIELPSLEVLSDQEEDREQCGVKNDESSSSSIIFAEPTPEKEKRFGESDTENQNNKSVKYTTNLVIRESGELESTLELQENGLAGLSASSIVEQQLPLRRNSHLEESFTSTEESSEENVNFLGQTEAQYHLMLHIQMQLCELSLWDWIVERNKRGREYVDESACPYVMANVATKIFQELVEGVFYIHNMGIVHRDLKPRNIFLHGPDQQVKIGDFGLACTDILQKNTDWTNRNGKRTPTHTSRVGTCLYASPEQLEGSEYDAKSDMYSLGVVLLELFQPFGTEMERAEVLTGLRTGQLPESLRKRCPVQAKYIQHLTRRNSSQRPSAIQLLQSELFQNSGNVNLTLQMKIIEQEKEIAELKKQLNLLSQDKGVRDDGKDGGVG

Row | Compound | melting point [°C] | total HRI ([1]; FIG. 2) | ratio phosphorylated/total HRI [1] | eIF2α phosphorylation [2] | FGF21 expression compared with BTdCPU [3] | FGF21 expression compared with BTCtFPU [3]
1 | O=C(Nc1ccc(Cl)c(S(F)(F)(F)(F)F)c1)Nc1ccc2nnsc2c1 [compound I-29, 1-(Benzo[d][1,2,3]thiadiazol-6-yl)-3-(4-chloro-3-(pentafluoro-λ^6-sulfanyl)phenyl)urea] | 213 to 214 | – | increased the ratio phosphorylated/total HRI | marked increase in eIF2α phosphorylation, higher than the observed with BTdCPU | higher increase in FGF21 expression than that observed for compound BTdCPU | –
2 | O=C(Nc1ccc(Cl)c(C(F)(F)F)c1)Nc1cc(S(F)(F)(F)(F)F)ccc1Cl [compound I-33, 1-(4-Chloro-3-(trifluoromethyl)phenyl)-3-(2-chloro-5-(pentafluoro-λ^6-sulfanyl)phenyl)urea] | 156 to 157 | reduction in total HRI | increase caused by I-33 was also statistically significant | enhanced eIF2α phosphorylation to values similar to those achieved by BTdCPU exposure | – | –
3 | O=C(Nc1ccc(S(F)(F)(F)(F)F)cc1)Nc1cccc(S(F)(F)(F)(F)F)c1 [compound I-37, 1-(3-(Pentafluoro-λ^6-sulfanyl)phenyl)-3-(4-(pentafluoro-λ^6-sulfanyl)phenyl)urea] | 216 to 217 | – | – | – | significant higher increase in FGF21 expression than compound BTdCPU | significant higher increase than compound BTCtFPU
4 | O=C(Nc1ccc2nnsc2c1)Nc1cccc(S(F)(F)(F)(F)F)c1Cl [compound I-28, 1-(Benzo[d][1,2,3]thiadiazol-6-yl)-3-(2-chloro-3-(pentafluoro-λ^6-sulfanyl)phenyl)urea] | 225 | – | increased the ratio phosphorylated/total HRI | marked increase in eIF2α phosphorylation, higher than the observed with BTdCPU | – | –
5 | O=C(Nc1cc(S(F)(F)(F)(F)F)ccc1Cl)Nc1cc(S(F)(F)(F)(F)F)ccc1Cl [compound I-32, 1,3-Bis(2-chloro-5-(pentafluoro-λ^6-sulfanyl)phenyl)urea] | 227 to 228 | – | – | – | – | –
6 | O=C(Nc1ccc(Cl)c(S(F)(F)(F)(F)F)c1)Nc1ccc(Cl)c(S(F)(F)(F)(F)F)c1 [compound I-38, 1,3-Bis(4-chloro-3-(pentafluoro-λ^6-sulfanyl)phenyl)urea] | 237 to 238 | – | – | – | significant higher increase in FGF21 expression than compound BTdCPU | significant higher increase than compound BTCtFPU
7 | O=C(Nc1cccc(S(F)(F)(F)(F)F)c1)Nc1cccc(S(F)(F)(F)(F)F)c1 [compound I-36, 1,3-Bis(3-(pentafluoro-λ^6-sulfanyl)phenyl)urea] | – | – | – | – | significant higher increase in FGF21 expression than compound BTdCPU | significant higher increase than compound BTCtFPU

Second part, led by results:

Row | melting point [°C] | total HRI ([1]; FIG. 2) | Compound | ratio phosphorylated/total HRI [1] | eIF2α phosphorylation [2] | FGF21 expression compared with BTdCPU [3] | FGF21 expression compared with BTCtFPU [3]
8 | 227 | – | O=C(Nc1ccc2nnsc2c1)Nc1cc(S(F)(F)(F)(F)F)ccc1Cl [compound I-27, 1-(Benzo[d][1,2,3]thiadiazol-6-yl)-3-(2-chloro-5-(pentafluoro-λ^6-sulfanyl)phenyl)urea] | increased the ratio phosphorylated/total HRI | marked increase in eIF2α phosphorylation, higher than the observed with BTdCPU | – | –
9 | 274 to 275 | – | O=C(Nc1ccc(S(F)(F)(F)(F)F)cc1)Nc1ccc2nnsc2c1 [compound I-25, 1-(Benzo[d][1,2,3]thiadiazol-6-yl)-3-(4-(pentafluoro-λ^6-sulfanyl)phenyl)urea] | increased the ratio phosphorylated/total HRI | – | – | –
10 | 229 to 230 | – | O=C(Nc1cccc(S(F)(F)(F)(F)F)c1)Nc1ccc2nnsc2c1 [compound I-26, 1-(Benzo[d][1,2,3]thiadiazol-6-yl)-3-(3-(pentafluoro-λ^6-sulfanyl)phenyl)urea] | increased the ratio phosphorylated/total HRI | marked increase in eIF2α phosphorylation, higher than the observed with BTdCPU | higher increase in FGF21 expression than that observed for compound BTdCPU | higher expression in FGF21 than BTCtFPU
